Assay results as given in article PMC11219871, “Epigenetic-based differentiation therapy for Acute Myeloid Leukemia” (Nature Communications, 2024).
“And” between values parts separate entries of the source, which are not always exact repeats. Equal values may be shown once.

Assays:
[1] = test system: NB-4; test: Cell proliferation assay: GI50; assay type: cell-based
Protocol: (§1) Cell proliferation was analyzed using the CellTiter 96 Aqueous One Solution Cell Proliferation Assay (Promega, Madison, WI). This is a colorimetric method for determining the number of viable cells in proliferation. For the assay, suspension cells were cultured in triplicate at a density of 1 × 10^6 cells/mL in 96-well plates (100.000 cells/well, 100 µL/well), using only the 60 inner wells to avoid any border effects. After 48 h of treatment with different doses of each compound (0, 0.001, 0.01, 0.1, 0.2, 0.4, 0.6, 0.8, 1, 2, 3, 4, 5 and 10 µM), the plates were centrifuged at 800 g for 10 min followed by removal of the medium. Then, the cells were incubated with 100 μL/well of medium and 20 μL/well of CellTiter 96 Aqueous One Solution reagent for 1–3 h. The absorbance was recorded at 490 and 650 nm as reference wavelengths using 96-well plate readers until the absorbance of the control cells without treatment was approximately 0.8 AU. The background absorbance was measured in wells with only cell line medium and solution reagent. First, the average of the absorbance from the control wells was subtracted from all other absorbance values. Data were calculated as the percentage of total absorbance of treated cells/absorbance of non-treated cells. The GI50 values of the different compounds were determined using non-linear regression plots made with GraphPad Prism v5 software.

[2] = test system: TF-1; test: Cell proliferation assay: GI50; assay type: cell-based
Protocol: as §1

[3] = test system: UT-7; test: Cell proliferation assay: GI50; assay type: cell-based
Protocol: as §1

[4] = test system: KASUMI-1; test: Cell proliferation assay: GI50; assay type: cell-based
Protocol: as §1

[5] = test system: M-07e; test: Cell proliferation assay: GI50; assay type: cell-based
Protocol: as §1

[6] = test system: OCI-AML2; test: Cell proliferation assay: GI50; assay type: cell-based
Protocol: as §1

[7] = test system: OCI-AML3; test: Cell proliferation assay: GI50; assay type: cell-based
Protocol: as §1

[8] = test system: THP-1; test: Cell proliferation assay: GI50; assay type: cell-based
Protocol: as §1

[9] = test system: GF-D8; test: Cell proliferation assay: GI50; assay type: cell-based
Protocol: as §1

[10] = test system: HEL; test: Cell proliferation assay: GI50; assay type: cell-based
Protocol: as §1

[11] = test system: MONO-MAC-6; test: Cell proliferation assay: GI50; assay type: cell-based
Protocol: as §1

[12] = test system: HL-60; test: Cell-cycle analysis; assay type: cell-based, human; conditions: HL-60, treatment for 48 hours; replicates 1-3 (Figure 2F)
Protocol: (§2) […] Next, the cells were washed twice with PBS and resuspended in 0.2% Tween 20 in PBS and 0.5 mg/mL Rnase A (Ribonuclease A Type III-A from bovine pancreas, Cat No. R5125, Sigma), and then incubated for 30 min at 37 °C. Subsequently, the cells were stained with 25 μg/mL of propidium iodide (Cat No P4170, Sigma) and analyzed using a BD FACSCanto flow cytometer (Becton Dickinson, San Jose, CA, USA).

[13] = test system: ML-2; test: Cell-cycle analysis; assay type: cell-based, human; conditions: ML-2, treatment for 48 hours; replicates 1-3 (Figure 2F)
Protocol: as §2

[14] = test system: MV4-11; test: Cell-cycle analysis; assay type: cell-based, human; conditions: MV4-11, 48 hours
Protocol: as §2

[15] = test system: MOLM-13; test: Cell-cycle analysis; assay type: cell-based, human; conditions: MOLM-13, 48 hours
Protocol: as §2

[16] = Cytotoxicity (LC50); assay type: cell-based; conditions: human, THLE-2 cells (immortalized liver cell line, ATCC CRL-2706)
[17] = Cytotoxicity (LC50); assay type: cell-based; conditions: human, PBMCs from healthy donors, 72-h exposure
[18] = Homo sapiens, NB-4, NB-4, replicates 1-3
[19] = Homo sapiens, TF-1, TF-1, replicates 1-3
[20] = Homo sapiens, UT7, 48 h, UT-7, 48 h
[21] = Homo sapiens, UT7, UT-7, replicates 1-3
[22] = Homo sapiens, Kasumi 1, 48 h, KASUMI-1, 48 h
[23] = Homo sapiens, Kasumi 1, KASUMI-1, replicates 1-3
[24] = Homo sapiens, OCI-AML2, OCI-AML2, replicates 1-3
[25] = Homo sapiens, OCI-AML-3, OCI-AML3, 48 h
[26] = Homo sapiens, OCI-AML-3, OCI-AML3, replicates 1-3
[27] = Homo sapiens, THP-1, replicates 1-3
[28] = Homo sapiens, MONO-MAC-6, MONO-MAC-6, replicates 1-3

COc1cc2nc(-c3ccc(C)o3)cc(NCC3CCN(c4ncc(C(=O)NO)cn4)CC3)c2cc1OC [CM-444, 2-[4-[[[6,7-dimethoxy-2-(5-methyl-2-furyl)-4-quinolyl]amino]methyl]-1-piperidyl]pyrimidine-5-carbohydroxamic acid]
GI50 ([1]; Homo sapiens, NB-4, 48 h): 668 nM
GI50 [1, 18]: 658 nM
GI50 ([1]; NB-4, replicates 1-3): 785 nM and 563 nM
GI50 [2, 19]: 3870 nM
GI50 ([2]; TF-1, replicates 1-3): 3250 nM and 3500 nM
GI50 [3, 20]: 970 nM
GI50 [3, 21]: 875 nM
GI50 ([3]; UT-7, replicates 1-3): 1070 nM and 965 nM
GI50 [4, 22]: 668 nM
GI50 [4, 23]: 521 nM
GI50 ([4]; KASUMI-1, replicates 1-3): 698 nM and 786 nM
GI50 ([5]; replicates 1-3): 1330 nM and 1200 nM and 1180 nM
GI50 ([6]; Homo sapiens, OCI-AML2, 48 h): 640 nM
GI50 [6, 24]: 736 nM
GI50 ([6]; OCI-AML2, replicates 1-3): 574 nM and 612 nM
GI50 [7, 25]: > 10000 nM
GI50 [7, 26]: > 10000 nM
GI50 ([7]; OCI-AML3, replicates 1-3): > 10000 nM
GI50 ([8]; Homo sapiens, THP-1, 48 h): > 10000 nM
GI50 [8, 27]: > 10000 nM
GI50 ([8]; THP-1, replicates 1-3): > 10000 nM
GI50 ([9]; GF-D8, replicates 1-3): 7250 nM and 4120 nM and 3690 nM
GI50 ([10]; Homo sapiens, replicates 1-3): 1590 nM
GI50 ([10]; replicates 1-3): 1120 nM and 938 nM
GI50 ([11]; Homo sapiens, MONO-MAC-6, 48 h): 470 nM
GI50 ([11]; MONO-MAC-6, replicates 1-3): 215 nM and 607 nM and 588 nM
Cell number (%) G1 [12]: 96.96% and 93.22% and 91.97%
Cell number (%) G2/M [12]: 4.36% and 1.34% and 3.53%
Cell number (%) S [12]: 1.70% and 3.26% and 3.67%
Cell number (%) G1 [13]: 96.26% and 93.16% and 96.12%
Cell number (%) G2/M [13]: 0.0429% and 0.75% and 2.61%
Cell number (%) S [13]: 2.99% and 4.24% and 3.84%
Cell number (%) G1 [14]: 92.37% and 89.49% and 89.94%
Cell number (%) G2/M [14]: 2.21% and 0.68% and 3.29%
Cell number (%) S [14]: 6.95% and 7.22% and 7.84%
Cell number (%) G1 [15]: 98.91% and 98.32% and 98.59%
Cell number (%) G2/M [15]: 0.29% and 0.03% and 0.73%
Cell number (%) S [15]: 1.06% and 0.95% and 1.11%
CC50 [16]: 794 nM
CC50 at 72 h [17]: 1240 nM

COc1cc2nc(-c3cc(C)oc3C)cc(NCC3CCN(c4ncc(C(=O)NO)cn4)CC3)c2cc1OC [CM-1758, 2-[4-[[[2-(2,5-dimethyl-3-furyl)-6,7-dimethoxy-4-quinolyl]amino]methyl] -1-piperidyl]pyrimidine-5-carbohydroxamic acid]
GI50 ([1]; Homo sapiens, NB-4, 48 h): 857 nM
GI50 [1, 18]: 987 nM
GI50 ([1]; NB-4, replicates 1-3): 714 nM and 870 nM
GI50 [2, 19]: 2960 nM
GI50 ([2]; TF-1, replicates 1-3): 2580 nM and 2690 nM
GI50 [3, 21]: 3680 nM
GI50 ([3]; UT-7, replicates 1-3): 3940 nM and 3670 nM
GI50 [4, 22]: 578 nM
GI50 [4, 23]: 721 nM
GI50 ([4]; KASUMI-1, replicates 1-3): 635 nM and 379 nM
GI50 ([5]; replicates 1-3): 1320 nM and 1990 nM and 1190 nM
GI50 ([6]; Homo sapiens, OCI-AML2, 48 h): 774 nM
GI50 [6, 24]: 954 nM
GI50 ([6]; OCI-AML2, replicates 1-3): 712 nM and 655 nM
GI50 [7, 25]: > 10000 nM
GI50 [7, 26]: > 10000 nM
GI50 ([7]; OCI-AML3, replicates 1-3): > 10000 nM
GI50 ([8]; Homo sapiens, THP-1, 48 h): > 10000 nM
GI50 [8, 27]: > 10000 nM
GI50 ([8]; THP-1, replicates 1-3): > 10000 nM
GI50 ([9]; 48 h, GF-D8, 48 h): > 10000 nM
GI50 ([9]; GF-D8, replicates 1-3): > 10000 nM
GI50 ([10]; Homo sapiens, replicates 1-3): 1880 nM
GI50 ([10]; replicates 1-3): 1320 nM and 1360 nM
GI50 ([11]; Homo sapiens, MONO-MAC-6, 48 h): 617 nM
GI50 [11, 28]: 785 nM
GI50 ([11]; MONO-MAC-6, replicates 1-3): 600 nM and 466 nM
Cell number (%) G1 [12]: 79.37% and 83.97% and 81.85%
Cell number (%) G2/M [12]: 6.97% and 12.93% and 5.78%
Cell number (%) S [12]: 7.70% and 10.26% and 11.19%
Cell number (%) G1 [13]: 90.78% and 86.19% and 89.03%
Cell number (%) G2/M [13]: 6.71% and 3.95% and 9.23%
Cell number (%) S [13]: 5.26% and 4.58% and 4.26%
Cell number (%) G1 [14]: 84.98% and 89.31% and 85.09%
Cell number (%) G2/M [14]: 8.40% and 10.00% and 4.67%
Cell number (%) S [14]: 5.02% and 6.02% and 6.51%
Cell number (%) G1 [15]: 94.79% and 97.36% and 97.43%
Cell number (%) G2/M [15]: 0.72% and 2.84% and 0.69%
Cell number (%) S [15]: 2.37% and 1.95% and 1.85%
CC50 [16]: 779 nM
CC50 at 72 h [17]: 2410 nM

CC1=C(/C=C/C(C)=C/C=C/C(C)=C/C(=O)O)C(C)(C)CCC1 [ATRA, all-trans retinoic acid, reference compound]
GI50 ([1]; Homo sapiens, NB-4, 48 h): > 10000 nM
GI50 [1, 18]: > 10000 nM
GI50 ([1]; NB-4, replicates 1-3): > 10000 nM
GI50 ([2]; Homo sapiens, TF-1, 48 h): > 10000 nM
GI50 [2, 19]: > 10000 nM
GI50 ([2]; TF-1, replicates 1-3): > 10000 nM
GI50 [3, 20]: > 10000 nM
GI50 [3, 21]: > 10000 nM
GI50 ([3]; UT-7, replicates 1-3): > 10000 nM
GI50 [4, 22]: > 10000 nM
GI50 [4, 23]: > 10000 nM
GI50 ([4]; KASUMI-1, replicates 1-3): > 10000 nM
GI50 ([5]; 48 h): > 10000 nM
GI50 ([5]; replicates 1-3): > 10000 nM
GI50 ([6]; Homo sapiens, OCI-AML2, 48 h): > 10000 nM
GI50 [6, 24]: > 10000 nM
GI50 ([6]; OCI-AML2, replicates 1-3): > 10000 nM
GI50 [7, 25]: > 10000 nM
GI50 [7, 26]: > 10000 nM
GI50 ([7]; OCI-AML3, replicates 1-3): > 10000 nM
GI50 ([8]; Homo sapiens, THP-1, 48 h): > 10000 nM
GI50 [8, 27]: > 10000 nM
GI50 ([8]; THP-1, replicates 1-3): > 10000 nM
GI50 ([9]; 48 h, GF-D8, 48 h): > 10000 nM
GI50 ([9]; GF-D8, replicates 1-3): > 10000 nM
GI50 ([10]; Homo sapiens, 48 h): > 10000 nM
GI50 ([10]; Homo sapiens, replicates 1-3): > 10000 nM
GI50 ([10]; replicates 1-3): > 10000 nM
GI50 ([11]; Homo sapiens, MONO-MAC-6, 48 h): > 10000 nM
GI50 [11, 28]: > 10000 nM
GI50 ([11]; MONO-MAC-6, replicates 1-3): > 10000 nM
